Results on five molecules are retold here after paper PMC9687805 (Biomolecules, 2022).

Data set [1] relates to porcine liver CES. Set-up: method as in PMID 33831780. To be noted: cited from earlier work.
On the set-up of data set [2]: method as in PMID 33831780. To be noted: cited from earlier work.
For data set [3], the target named is T1, Human erythrocyte AChE (Homo sapiens, UniProt P22303).
T1 construct: purchased Sigma-Aldrich; host or cells: human erythrocytes
In words: biochemical. To be noted: human erythrocyte AChE; 5 min incubation, 25 °C, pH 7.5; mean ± SEM, n = 3; read-out: Inhibitory activity against AChE, IC50. How it is done:
(§1) The assay solution consisted of 0.1 M K/Na phosphate buffer pH 7.5, 25 °C, 0.33 mM DTNB, 0.02 unit/mL AChE or BChE, and 1 mM substrate (ATCh or BTCh, respectively). Reagent blanks consisted of reaction mixtures without substrates.
(§2) Each experiment was performed in triplicate.

In data set [4] the target is T2, equine serum BChE (Equus caballus, UniProt P81908).
T2 construct: purchased Sigma-Aldrich; host or cells: equine serum
T2 sequence (P81908 whole entry): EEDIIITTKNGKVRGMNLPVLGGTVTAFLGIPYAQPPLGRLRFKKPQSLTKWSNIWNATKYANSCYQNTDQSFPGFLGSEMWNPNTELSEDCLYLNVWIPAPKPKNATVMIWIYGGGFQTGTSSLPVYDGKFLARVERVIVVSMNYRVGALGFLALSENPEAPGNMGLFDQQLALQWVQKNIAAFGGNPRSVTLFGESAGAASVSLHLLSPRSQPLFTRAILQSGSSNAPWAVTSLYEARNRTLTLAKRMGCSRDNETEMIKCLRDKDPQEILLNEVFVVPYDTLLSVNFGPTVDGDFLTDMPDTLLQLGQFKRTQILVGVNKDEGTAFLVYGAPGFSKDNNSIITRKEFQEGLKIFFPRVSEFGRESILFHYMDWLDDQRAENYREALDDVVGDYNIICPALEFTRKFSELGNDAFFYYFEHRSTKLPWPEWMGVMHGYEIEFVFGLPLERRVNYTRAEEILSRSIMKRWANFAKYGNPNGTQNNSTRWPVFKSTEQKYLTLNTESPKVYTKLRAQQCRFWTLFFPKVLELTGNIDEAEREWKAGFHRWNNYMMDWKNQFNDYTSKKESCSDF
In words: biochemical. The settings on record: equine serum BChE; 5 min incubation, 25 °C, pH 7.5; mean ± SEM, n = 3; read-out: Inhibitory activity against BChE, IC50. The protocol:
as §1, §2

The next data set concerns the target T3, EeAChE PAS (Electrophorus electricus, UniProt O42275).
T3 construct: purchased Sigma-Aldrich type VI-S; host or cells: electric eel
As to the kind of experiment: biochemical. It counts as binding. To be noted: 0.25 h; compound 20 μM, EeAChE 7 μM, propidium iodide 8 μM; n.a. = not active; read-out: % Displacement of Propidium from the EeAChE PAS at 20 μM. The protocol: Electrophorus electricus (EeAChE) (electric eel, type VI-S, lyophilized powder, Sigma-Aldrich, St. Louis, MO, USA) was used owing to its high degree of purification, high activity, and lower cost than human AChE (hAChE). […] To determine the degree of displacement (% displacement) of propidium from the PAS of AChE, EeAChE (final concentration, 7 μM) was incubated with the test compound at a concentration of 20 μM in 1 mM Tris-HCl buffer pH 8.0, 25 °C, for 15 min. Then, propidium iodide solution (final concentration, 8 μM) was added, the samples were incubated for 15 min, and the fluorescence spectrum (530 nm (excitation) and 600 nm (emission)) was taken. […] The blank contained propidium iodide of the same concentration in 1 mM Tris-HCl buffer, pH 8.0 at 25 °C. The measurements were carried out in triplicate on a FLUOStar Optima microplate reader (LabTech, Ortenberg, Germany), and the results were calculated by the following formula:% Displacement = 100 − (IFAChE + Propidium + inhibitor / IFAChE + Propidium) × 100 (1) where IFAChE + Propidium is the fluorescence intensity of the propidium associated with AChE in the absence of the test compound (taken as 100%), and IFAChE + Propidium + inhibitor is the fluorescence intensity of the propidium associated with AChE in the presence of the test compound.

Data set [5] in a line: ABTS radical cation scavenging activity assay. To be noted: n=3, 1 h, 30 °C; for ABTS•+-scavenging activity, TEAC: Trolox equivalent antioxidant capacity, mean ± SEM; for IC50: concentration for 50% reduction of ABTS radical cation. On the set-up: key to ABTS•+-scavenging activity, TEAC: ratio of slopes, tested compound vs Trolox (Trolox = 1). The protocol:
Radical scavenging activity of the compounds was evaluated by the ABTS radical cation (ABTS^•+) scavenging assay showing the ability of the compounds to decolorize the ABTS^•+ solution [86] with some modifications. Trolox was used as the antioxidant standard; ascorbic acid was used as the comparison compound. All tested compounds and standards were dissolved in DMSO.
The solution of ABTS^•+ was produced by mixing 7 mM ABTS aqueous solution with 2.45 mM potassium persulfate aqueous solution in equal quantities and allowing them to react for 12–16 h at room temperature in the dark. Radical scavenging capacity of the compounds was analyzed by mixing 10 µL of compound with 240 µL of ABTS^•+ working solution in ethanol (100 µM final concentration), and after 1 h of incubation at 30 °C the decrease in absorbance was measured spectrophotometrically at 734 nm using a Bio-Rad xMark microplate UV/VIS spectrophotometer (Bio-Rad, Hercules, CA, USA). The compounds were tested in the concentration range 5 × 10^−7–1 × 10^−4 M. Ethanol blanks were run in each assay. Values were obtained from five replicates of each sample and three independent experiments.
Antioxidant activity was reported as Trolox equivalent antioxidant capacity (TEAC values), consisting of the ratio between the slopes obtained from the linear correlation for concentrations of the tested compounds and Trolox with absorbance of ABTS radical. […] The calculations were carried out using Origin 6.1 for Windows (OriginLab, Northampton, MA, USA). Results are presented as mean ± SEM calculated using GraphPad Prism version 6.05 for Windows, GraphPad Software (San Diego, CA, USA).

Data set [6] is described as follows: Ferric reducing antioxidant power (FRAP) assay. To be noted: Trolox equivalents; n=3, 1 h, 37 °C; mean ± SEM. How it is done: The FRAP (Ferric Reducing Antioxidant Power) assay measures the ability of antioxidants to reduce the ferric 2,4,6-tripyridyl-s-triazine complex [Fe(TPTZ)2]^3+ to the intensely blue-colored ferrous complex [Fe(TPTZ)2]^2+ with an absorption maximum at λ = 593 nm. The reducing ability of a compound is an indicator of its potential antioxidant activity.
The ferric reducing ability of the compounds was determined by a previously described method as a microplate-adapted version described in [42]. 2,4,6-tris(pyridin-2-yl)-1,3,5-triazine (TPTZ), FeCl3·6H2O, Trolox, ascorbic acid and DMSO were obtained from Sigma-Aldrich Chemical Co (St. Louis, MO, USA). The FRAP reagent was prepared by mixing acetate buffer (0.3 M, pH 3.6), TPTZ (10 mM in 40 mM HCl) and FeCl3·6H2O (20 mM in distilled water) in a ratio of 10:1:1 immediately before use. Compounds were dissolved in DMSO and tested in the concentration range of 1×10^−6–1×10^−4 M. The solvent content in the reaction mixture was 4% (v/v). The test compounds (10 µL) were added to the FRAP reagent solution (240 µL) and mixed thoroughly. The reaction was carried out at 37 °C in the dark, the incubation time was 1 h. The absorbance at 600 nm was monitored spectrophotometrically by a FLUOStar OPTIMA microplate reader (BMG Labtech, Germany) at 37 °C. Trolox was used as a standard antioxidant, ascorbic acid as a reference compound. Values were obtained from four replicates of each sample and three independent experiments.
The ferric reducing ability of compounds was expressed as TE units (antioxidant activity in Trolox equivalent) with the values calculated as the ratio of the concentrations of Trolox and the test compound resulting in the same effect.

A short description of data set [7]: Metal-chelating properties by UV-Vis spectrometry in acetonitrile. It counts as physicochemical. To be noted: compound 40 µM, metal 40 µM, 25 °C, red shift of absorbance. How it is done:
The complexing studies were made in acetonitrile at 25 °C using a UV–vis spectrophotometer Shimadzu UV-2600 (Shimadzu Corporation, Kyoto, Japan) with wavelength ranging from 190 to 600 nm. Solutions (200 µM in acetonitrile) of the following metals compounds were prepared in volumetric flasks: FeCl2·4H2O (99%, Acros Organics by Thermo Fisher Scientific (Kandel, Germany)), CuCl2 (98%, Alfa Aesar by Thermo Fisher Scientific (Kandel, Germany)), or Zn(NO3)2·6H2O (98%, Alfa Aesar by Thermo Fisher Scientific (Kandel, Germany). Solutions of the test compounds were also prepared in acetonitrile at 400 µM concentrations. To a mixture of 0.5 mL test compound solution (40 μM final concentration) and 3.5 mL acetonitrile, 1 mL of the metal solution (CuCl2, FeCl2·4H2O, or Zn(NO3)2·6H2O; 40 µM final concentration) was added. The solution was incubated at 25 °C for 30 min and then the absorption spectra were recorded at 25 °C in a 1 cm quartz cell. The control was prepared by mixing 0.5 mL tested compound solution and 4.5 mL acetonitrile.

The subject of data set [8] is porcine liver CES. In words: CES inhibition, 4-nitrophenyl acetate hydrolysis. The settings on record: compound 20 μM; mean ± SEM, n = 3; n.a. = not active.
Description: Final enzyme and substrate (4-nitrophenyl acetate) concentrations were 0.02 unit/mL and 1 mM, respectively. Assays were carried out with a blank containing all constituents except porcine CES to assess non-enzymatic hydrolysis. Measurements were performed with a FLUOStar Optima microplate reader (BMG Labtech, Ortenberg, Germany). Compounds were dissolved in DMSO; the incubation mixture contained 2% (v/v) solvent. The primary evaluation of the inhibitory activity of the compounds was performed by determining the degree of the enzyme inhibition at a compound concentration of 20 µM. For this, a sample of the corresponding enzyme was incubated with the test compound for 5 min; then the enzyme residual activity was determined. Each experiment was performed in triplicate. […] Substrate was then added and residual enzyme activity relative to an inhibitor-free control was measured using a FLUOStar Optima microplate reader.
In data set [9] the target is T1, Human erythrocyte AChE. As to the kind of experiment: Kinetic study of AChE inhibition (Lineweaver-Burk). It counts as biochemical. How it is done: (§3) Mechanisms of human erythrocyte AChE and equine serum BChE inhibition were assessed via a thorough analysis of enzyme kinetics. Residual activity was measured following 5 min incubation at 25 °C with three increasing concentrations of inhibitor and six decreasing substrate concentrations.

Data set [10] deals with T2, equine serum BChE. In words: Kinetic study of BChE inhibition (Lineweaver-Burk). It counts as biochemical. How it is done: as §3
Setting [11] is: Lineweaver-Burk plot, changes in Km and Vmax.

A word on the IC50: it is the concentration that gives 50% inhibition. The Ki is the dissociation constant of the complex between target and ligand, obtained from inhibition or displacement.

T1 sequence (P22303 32-617 isoform P22303-2 limits assumed): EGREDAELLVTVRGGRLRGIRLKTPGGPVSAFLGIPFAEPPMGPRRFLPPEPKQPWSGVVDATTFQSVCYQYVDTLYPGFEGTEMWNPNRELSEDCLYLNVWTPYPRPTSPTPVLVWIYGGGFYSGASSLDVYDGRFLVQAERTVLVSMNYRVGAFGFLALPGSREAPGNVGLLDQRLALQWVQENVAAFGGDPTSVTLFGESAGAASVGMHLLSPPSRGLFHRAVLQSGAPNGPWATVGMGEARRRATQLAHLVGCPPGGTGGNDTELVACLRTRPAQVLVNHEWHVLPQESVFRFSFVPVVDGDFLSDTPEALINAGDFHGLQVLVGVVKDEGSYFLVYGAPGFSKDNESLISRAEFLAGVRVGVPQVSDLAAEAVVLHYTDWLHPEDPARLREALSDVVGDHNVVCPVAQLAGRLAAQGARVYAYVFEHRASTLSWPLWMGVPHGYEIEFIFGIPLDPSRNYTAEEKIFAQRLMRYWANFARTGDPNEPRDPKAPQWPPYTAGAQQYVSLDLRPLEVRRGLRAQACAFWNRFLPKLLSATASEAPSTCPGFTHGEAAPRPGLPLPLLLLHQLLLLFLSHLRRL
T3 sequence (O42275 24-633): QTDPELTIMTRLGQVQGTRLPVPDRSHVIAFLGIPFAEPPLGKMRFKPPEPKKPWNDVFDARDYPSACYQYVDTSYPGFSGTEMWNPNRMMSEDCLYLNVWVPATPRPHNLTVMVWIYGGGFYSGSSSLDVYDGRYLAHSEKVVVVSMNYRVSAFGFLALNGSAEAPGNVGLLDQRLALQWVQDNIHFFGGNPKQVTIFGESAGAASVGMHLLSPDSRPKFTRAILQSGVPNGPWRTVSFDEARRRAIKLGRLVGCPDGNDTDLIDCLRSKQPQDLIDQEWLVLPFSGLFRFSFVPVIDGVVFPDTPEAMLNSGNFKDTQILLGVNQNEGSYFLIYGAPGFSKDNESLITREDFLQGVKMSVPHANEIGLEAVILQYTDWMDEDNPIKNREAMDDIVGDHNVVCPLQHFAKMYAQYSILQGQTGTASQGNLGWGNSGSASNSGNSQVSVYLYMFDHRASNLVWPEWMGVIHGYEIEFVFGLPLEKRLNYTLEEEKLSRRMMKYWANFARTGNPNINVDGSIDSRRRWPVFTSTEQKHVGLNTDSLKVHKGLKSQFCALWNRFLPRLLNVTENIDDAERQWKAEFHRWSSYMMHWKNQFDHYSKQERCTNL

`CC(=O)C(=NNc1ccc(C)cc1)C(=O)C(F)(F)F` [1c, 1,1,1-trifluoro-3-[2-(4-methylphenyl)hydrazinylidene]pentane-2,4-dione]: in the data set with porcine liver CES [1], the “inhibitory activity against CES” value was “moderate inhibitory activity”. Also, the “radical-scavenging activity in the ABTS assay” value in [2] was “high radical-scavenging activity”.
`Cc1ccc(NN=C(C(=O)c2ccccc2)C(=O)C(F)(F)F)cc1` [1d, 4,4,4-trifluoro-2-[2-(4-methylphenyl)hydrazinylidene]-1-phenylbutane-1,3-dione]: in data set [2], the “radical-scavenging activity in the ABTS assay” value is on record as “high radical-scavenging activity”.
Consider `C/C(NCCCCNc1c2c(nc3ccccc13)CCCC2)=C(/N=N/c1ccc(C)cc1)C(=O)C(F)(F)F` [8a], for which the IC50 at Human erythrocyte AChE [3] stood at 1690 ± 50 nM; at equine serum BChE [4] it was 246 ± 16 nM; in [5], 17700 ± 1300 nM. In addition, the inhibition at 20 µM on EeAChE PAS amounted to 13.7 ± 1.2%. Further, the “ABTS•+-scavenging activity, TEAC” value in [5] was found to be 1.13 ± 0.05. The “FRAP (Fe3+-reducing activity), TE” value in [6] amounted to 0.06 ± 0.01. In addition, in data set [7], the “Metal-chelating ability for Cu2+, Fe2+ and Zn2+” value was “metal-chelating ability”. The “Inhibitory activity against CES, % inhibition at 20 μM” value in the data set on porcine liver CES [8] came out at 28.6 ± 4.0%.
As for `CC(=O)C(/N=N/c1ccc(C)cc1)=C(\C)NCCCCCCNc1c2c(nc3ccccc13)CCCC2` [6b], the IC50 on Human erythrocyte AChE [3] was determined as 342 ± 15 nM; on equine serum BChE [4], 138 ± 2 nM; in data set [5], 18600 ± 1400 nM. Besides, the “Type of AChE inhibition” value on Human erythrocyte AChE [9] (setting [11]) was “mixed type of inhibition”. In addition, at Human erythrocyte AChE [9] (mixed type inhibition), the “αKi (noncompetitive component), AChE” value is given as 0.473 ± 0.041 µM. In addition, the Ki was 254 ± 18 nM on Human erythrocyte AChE [9] (mixed type inhibition, read-out: Ki (competitive component), AChE) and 95 ± 8 nM on equine serum BChE [10] (mixed type inhibition, read-out: Ki (competitive component), BChE). Also, at equine serum BChE [10] (setting [11]), the “Type of BChE inhibition” value was “mixed type of inhibition”. The “αKi (noncompetitive component), BChE” value at equine serum BChE [10] (mixed type inhibition) was determined as 0.224 ± 0.022 µM. Moreover, on EeAChE PAS, the inhibition at 20 µM was 19 ± 1.3%. Also, in data set [5], the “ABTS•+-scavenging activity, TEAC” value amounted to 1.00 ± 0.02. Moreover, the “FRAP (Fe3+-reducing activity), TE” value in data set [6] is reported as 0.48 ± 0.04. The “Inhibitory activity against CES, % inhibition at 20 μM” value in the data set on porcine liver CES [8] is reported as 29.0 ± 0.1%.
`CC(=O)C(/N=N/c1ccc(C)cc1)=C(\C)NCCCCNc1c2c(nc3ccccc13)CCCC2` [6a]: the IC50 at Human erythrocyte AChE [3] is 1390 ± 40 nM; on equine serum BChE [4] it was 139 ± 17 nM; in data set [5] it was 19500 ± 1100 nM. Moreover, the inhibition at 20 µM at EeAChE PAS was found to be 15.6 ± 1.2%. For the same molecule, the “ABTS•+-scavenging activity, TEAC” value in data set [5] is 1.00 ± 0.03. Also, in data set [6], the “FRAP (Fe3+-reducing activity), TE” value is listed as 0.37 ± 0.06. The “Metal-chelating ability for Cu2+, Fe2+ and Zn2+” value in data set [7] is given as “metal-chelating ability”. Moreover, in the data set with porcine liver CES [8], the “Inhibitory activity against CES, % inhibition at 20 μM” value is recorded as 23.3 ± 0.4%.
